Format in all cases: cell-based
The test system of data set [1] is FOXP3. Kind of data set: FOXP3 expression in human Treg / CD4+ T cells treated with SMAD3 inhibitors. Particulars: for FOXP3 mRNA expression: purified human Treg cells. The text has this:
p-SMAD3 […]/425 is recognized for its involvement in TGFβ signaling. […] Given the essential role of SMAD3 phosphorylation in nuclear localization and transcriptional activity controlling other genes, the phosphorylation status and its association with IL-37 in human Treg cells was examined (FIG. 24A). Inhibitors of […]/425 sites (SIS3) and […]/[…] sites (flavopiridol) were utilized to determine if they could decrease FOXP3 mRNA expression and disrupt the SMAD3/IL-37 interaction. […] These findings also point to a crucial interplay between p-SMAD3 […] and IL-37 in orchestrating the transcriptional regulation of FOXP3 in human Treg cells.

In a further data set the test system is p-SMAD3 S208. Kind of data set: Immunoblotting of cytoplasmic and nuclear proteins of human Treg cells after flavopiridol. Particulars: immunoblot. How it is done:
For immunoblot analysis, cells were lysed in RIPA buffer (50 mM Tris-HCL pH 7.4, 150 mM NaCl, 1 mM PMSF, 1 mM EDTA, 5 μg/ml Aprotinin, […] Leupeptin, 1% Triton x-100, 1% Sodium deoxycholate, 0.1% SDS) (Sigma-Aldrich). For IP of Smad3, cells were lysed in Pierce® IP Lysis Buffer (Thermo) and prepared using the Thermo Immunoprecipitation containing Dynabeads™ Protein G kit according to the manufacturer's instructions. The Smad3 IP was performed using the rabbit monoclonal antibody against Smad3 (C67H9) (Thermo). Hsp90 IP using mouse monoclonal antibody against Hsp90 (610418) (BD Biosciences). 20 μg of sample was run on a 4-15% Mini-Protean TGX precast gel (Bio-Rad) and then transferred overnight at 4° C. and 30 V to a PVDF membrane using a Bio-Rad Trans-Blot® transfer cell. Following 1 h of blocking with blocking buffer (5% milk/Tween 20 in TBS), membranes were incubated with primary antibody overnight at 4° C. For siRNA knockdown blots, mouse β-actin monoclonal antibody (Sigma-Aldrich) at a dilution of 1:10,000 was used for the loading control. For Smad3 IP, rabbit anti-human IL-37 (IL-1F7) polyclonal antibody (Invitrogen, Thermo) at a dilution of 1:1000 was used to detect IL37. HRP-conjugated anti-rabbit (1:5000) and anti-mouse IgG (1:5000) were purchased from Sigma-Aldrich. The SuperSignal West Pico Kit (Thermo Fisher) was used according to the manufacturer's instructions for the chemiluminescent detection of the proteins. Protein expression was further analyzed by measuring the relative densities using FIJI (National Institutes of Health: http://rsb.info.nih.gov/ij/) or LI-COR Image Studio™ Software.
Therefore, cytoplasmic and nuclear proteins of primary human Treg cells was scrutinized following flavopiridol treatment to ascertain if p-SMAD3 S208 is essential for the nuclear localization of SMAD3 and IL-37.
(In general: A western blot detects proteins with antibodies after separation by electrophoresis.)

A further data set relates to caspase-1. Kind of data set: Caspase-1 inhibition in human Treg / CD4+ T cells. The following applies: 50 μM. How it is done: For proximity ligation assay (PLA) experiments, after primary antibodies were washed out, cells were incubated for 1 h at 37° C. with an anti-rabbit PLUS probe (1:5 dilution; Duo92002; Sigma-Aldrich) anti-mouse MINUS probe (1:5 dilution; Duo92004; Sigma-Aldrich) and were washed two times with wash buffer A. Probes were then ligated for 30 min at 37° C. and washed two times in Buffer A and were amplified for 100 min at 37° C. in the dark with polymerase (Sigma-Aldrich). For flow-based PLA (Sigma-Aldrich), after amplification, cells were treated with 1× green detection buffer for 30 min at 37° C., then washed 2× with PLA wash buffer and prepared for flow analysis. After 2 washes with 1× Buffer B (Thermo Fisher), each well was added with ProLong™ Gold antifade reagent (Thermo Fisher) containing DAPI nuclear stain. Images were obtained with an Olympus FV1000 FCS/RICS system (Olympus, Tokyo, Japan). For analysis, 7 different 100×/1.4 Oil Plan-Apochromatic objective fields of view were imaged per well per experiment. Each field was measured for IL-37 fluorescence intensity using the FIJI measurement application. To analyze the cytoplasmic vs. nuclear localization of IL-37 within the T cells, DAPI and IL-37 overlapped images was used. Along with single-slice full field images, […] slice z-stack images were taken to confirm cytoplasmic vs. nuclear localization of IL-37. Colocalization of IL-37 and DAPI was assessed by Pearson's correlation coefficient using FIJI. Line intensity profiles were created using a Plot profile in FIJI to measure differences in fluorescence across a cell by drawing a line spanning the diameter of the cell, and then the staining intensity measurements across the line were then entered into Prism 8 (GraphPad, Lo Jolla, CA). 3D fluorescent maps were created using a Surface plot in FIJI.
Purified lymphocytes from either humans or mice were washed with FACS buffer (5% BSA (Sigma-Aldrich) and 1×PBS), and then prepared for surface or intracellular staining, as described (Osborne and Wetzel, 2012). For surface staining, 1 μg or the manufacturer-recommended amounts of fluorescently conjugated antibody specific to the surface marker to be visualized was added to 1×10^6 cells resuspended in 100 μl of FACS buffer for 30 min at 4° C., then washed 2× with FACS buffer prior to being either analyzed or further processed. […] For measuring proliferation, cells were stained with 5-μM CFSE (Molecular Probes, Eugene, OR) prior to cell culture and analyzed using flow cytometry. […]

In data set [2] the test system is FOXP3. As to the kind of experiment: siRNA knockdown in primary human T cells, FOXP3 and marker expression. Particulars: siRNA 48 h prior. As to the method: Purified primary human CD4+ T cells were used for siRNA knockdown of RUNX1, RPTOR, IL37, CREB1, CHK1, NLRP2, NLRP3, NLRP4, ASC, and NLRC4, and CD4+CD25+CD127^dim T cells for siRNA knockdown of FOXP3 and IL37. Cells were purified from healthy donor PBMCs as described above and then placed in culture in complete RPMI 1640 for at least 2 h prior to siRNA transfection via nucleofection using the Amaxa P3 Primary Cell 4D-Nucleofector X Kit L (Lonza) following the manufacturer's instructions. For the knockdown of RPTOR and IL-37, three different siRNAs (30 nM) against RPTOR and IL-37: A, B, and C (OriGene, Rockville, MD) were used separately or pooled, whereas for FOXP3 knockdown, only the pool of three different siRNAs (30 nM) against FOXP3: A, B, and C (OriGene) was used due to a limited number CD4+CD25+CD127^dim T cells. For the knockdown of NLRP3A, three to four siRNAs were pooled together, and for NLRC4 and NLRP4, Dharmacon SMARTpool was used. Single-sense and anti-sense siRNAs were used for NLRP2 and ASC (Ambion). Scrambled siRNA (OriGene, Ambion, and Dharmacon) was used as a control. Knockdowns were confirmed 24 hours after nucleofection by qRT-PCR or 48 hours later by western blot, and the relative density of the protein bands was determined using FIJI. […]

Another data set deals with human Treg cells. As to the kind of experiment: CD25+FOXP3+ frequency in human Treg cells cultured with IL-6. Particulars: anti-TCR/CD28, IL-6 20 ng/ml. How it is done: Purified lymphocytes from either humans or mice were washed with FACS buffer (5% BSA (Sigma-Aldrich) and 1×PBS), and then prepared for surface or intracellular staining, as described (Osborne and Wetzel, 2012). For surface staining, 1 μg or the manufacturer-recommended amounts of fluorescently conjugated antibody specific to the surface marker to be visualized was added to 1×10^6 cells resuspended in 100 μl of FACS buffer for 30 min at 4° C., then washed 2× with FACS buffer prior to being either analyzed or further processed. For intracellular cytokine staining (ICS), the FOXP3 Cytoperm/Cytofix staining kit (BD Pharmingen, San Diego, CA) was used after cells were stimulated for 24 h on 1 μg/ml anti-CD3-coated plates with soluble 1 μg/ml anti-CD28 antibody or anti-CD3/CD28 conjugated Dynabeads™ (Gibco, Thermo Fisher). For measuring proliferation, cells were stained with 5-μM CFSE (Molecular Probes, Eugene, OR) prior to cell culture and analyzed using flow cytometry. Flow-based measurement of caspase-1 activation was done using the FAM-FLICA® Caspase-1 Assay kit #98 following the manufacturer's instructions (ImmunoChemistry Tech, Bloomington, MN). […] All acquisitions were performed on a Galios® or Galios® 561 cytometer equipped with Kaluza software (Beckman-Coulter, Indianapolis, IN), and all data were analyzed with FlowJo_V10 software (Tree Star, Ashland, OR).

On to `COc1cc2c(cc1OC)CN(C(=O)/C=C/c1c(-c3ccccc3)n(C)c3ncccc13)CC2` [SIS3], for which, in the data set on FOXP3 [1] (primary human CD4+ T cells), the FOXP3 protein expression result is listed as “did not significantly decrease”. In the data set on FOXP3 [1], the “FOXP3 mRNA expression” value is given as “did not significantly alter”.

For the compound `CN1CC[C@H](c2c(O)cc(O)c3c(=O)cc(-c4ccccc4Cl)oc23)[C@H](O)C1` [flavopiridol], the “FOXP3 protein expression, fold decrease compared to control cells” value in the data set with FOXP3 [1] (primary human CD4+ T cells, not rescued by TGF-β) is recorded as approximately 2 fold. Also, the “FOXP3 mRNA expression” value with FOXP3 [1] is listed as “almost completely obliterated”. Besides, in the data set on p-SMAD3 S208, the “expression of IL-37 in the nucleus” value is reported as “abolished”, the “nuclear SMAD3 levels” value is recorded as “lowered”, the “nuclear levels of FOXP3” value is “reduced” and the “p-SMAD3 S208” value is “diminished”.

Ac-YVAD-CMK: the “FOXP3 mRNA and protein expression” value in the data set with caspase-1 (human CD4+ T cells) is on record as “reduction”. The “decrease of interaction between IL-37 and p-SMAD3 S208” value with caspase-1 (human Treg cells) turned out to be 36.5%. In addition, the IL-37 subcellular localization entry in the data set with caspase-1 (human Treg cells, 24 h) was “shift of IL-37 localization from the nucleus to the perinuclear region of the cytoplasm”. For the same compound, the IL-37 expression result with caspase-1 (human Treg cells, 48 h) is “without alteration”.

With “CREB1: siRNA against CREB1 (Ambion), SEQ ID NO: 8-9 (chain 1 CCGUAACUCUAGUACAGCU; chain 2 AGCUGUACUAGAGUUACGG; listed as RNA, chemistry not given here)”, the “frequency of FOXP3+ T cells in CD4+ T cells after knockdown” value in the data set with FOXP3 [2] is on record as “significant decline”.

Turning to “IL-6: IL-6 (Peprotech), 20 ng/ml, added as inflammatory stimulus to Treg cultures”, the “decrease in frequency of CD25+FOXP3+ cells” value with human Treg cells (gated IL37hi human Treg cells) is “no such reduction”; in the data set with human Treg cells (gated IL-37lo human Treg cells), 34%.

Turning to “RUNX1: siRNA against RUNX1 (Ambion), SEQ ID NO: 34-35 (chain 1 AGAACCAGGUUGCAAGAUU; chain 2 AAUCUUGCAACCUGGUUCU; listed as RNA, chemistry not given here)”, the “frequency of FOXP3+ T cells in CD4+ T cells after knockdown” value in the data set with FOXP3 [2] is reported as “significant decline”.

Source of the values: patent publication US20250361485A1, “MODIFIED CD4+ T CELLS EXPRESSING IL-37 AND METHODS OF USE THEREOF” (The Regents of the University of Colorado, A Body Corporate, priority 2022, published 2025).
